From article PMC4418665, “Cyclization of the Urokinase Receptor-Derived Ser-Arg-Ser-Arg-Tyr Peptide Generates a Potent Inhibitor of Trans-Endothelial Migration of Monocytes” (PLoS ONE, 2015)
Peptide text beside a SMILES is read from it.

System: GFP-tagged THP-1 cells on endothelial monolayer (HUVECs)
Experiment: Monocyte diapedesis: GFP-tagged THP-1 cells on HUVEC monolayer
Type: cell-based, human
Details: 10 nM peptide, 30 minutes, 37°C, 10 fields/slide
Excerpt: Diapedesis of leukocytes plays a key role in the pathogenesis of inflammatory diseases and migration of monocytes from the blood into the sub-endothelial space is one of the earliest events. We investigated the effects of [SRSRY] on the number and morphology of THP-1 seeded to an endothelial monolayer. […] (Fig 5A). To examine the changes in morphology in more detail and quantify monocytes interacting with endothelial monolayer, we performed a subset of experiments using GFP-tagged THP-1, labeling co-cultures for F-actin and recording images by a confocal microscope. […] To further ascertain if [SRSRY] reduces trans-endothelial migration of monocytes, the ability of THP-1 cells to cross an endothelial monolayer was analyzed using the xCELLigence RTCA technology as previously described. […] At this time, reduction of impedance values, due to invading cells that interrupt monolayers was monitored in real-time for 10 hours. […]
Fig 5 [SRSRY] prevents trans-endothelial migration of THP-1 cells. […] Representative images of co-cultures analyzed by phase contrast microscopy at 100x with Scale bar: 50 μm (A) or stained with rhodamine- phalloidin and recorded by a confocal microscope (z-series with 0.25 μm intervals) at 630x with Scale bar: 10 μm (B). […] Fluorescent THP-1 cells which were adherent on the endothelial monolayer were counted on 10 fields/slide at 200x magnification. […]

SMILES: N=C(N)NCCC[C@@H]1NC(=O)[C@H](CO)NC(=O)[C@H](Cc2ccc(O)cc2)NC(=O)[C@H](CCCNC(=N)N)NC(=O)[C@H](CO)NC1=O [[SRSRY], [Ser-Arg-Ser-Arg-Tyr]] (cyclo(RSRYS))
- reduction of GFP-THP-1 cell number interacting with endothelial monolayer: 40%
